The results in this text go back to ChEMBL document CHEMBL1909046, “DrugMatrix in vitro pharmacology data”.

The nature of series [1]: DRUGMATRIX: beta-Lactamase enzyme inhibition (substrate: Nitrocefin). Further details: species or system Bacillus cereus. The note with it: Not Active = under 50% inhibition at 10 µM.
The target of series [2] is 5-hydroxytryptamine receptor 4 (Cavia porcellus, UniProt O70528). Format: cell membranes, Dunkin-Hartley, Striatum, Membrane. Further: in other assays of this panel Not Active means under 50% inhibition at 10 µM.
Sequence of 5-hydroxytryptamine receptor 4 (O70528 whole entry): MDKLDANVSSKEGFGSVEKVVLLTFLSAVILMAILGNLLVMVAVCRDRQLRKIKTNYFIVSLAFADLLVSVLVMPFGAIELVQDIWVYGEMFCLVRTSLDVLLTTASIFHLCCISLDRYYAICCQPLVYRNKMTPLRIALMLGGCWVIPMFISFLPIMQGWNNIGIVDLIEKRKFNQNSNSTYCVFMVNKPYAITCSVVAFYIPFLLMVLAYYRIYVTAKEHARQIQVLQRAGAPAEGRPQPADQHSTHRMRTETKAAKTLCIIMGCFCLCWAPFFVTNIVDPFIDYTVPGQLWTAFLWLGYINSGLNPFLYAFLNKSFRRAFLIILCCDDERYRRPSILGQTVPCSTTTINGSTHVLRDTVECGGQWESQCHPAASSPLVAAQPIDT
Series [3] concerns the target 5-hydroxytryptamine receptor 6 (Homo sapiens, UniProt P50406). The series is classed as cell membranes, HeLa, Membrane. The following applies: for Ki: read-out: Ki. On all read-outs here: in other assays of this panel Not Active means under 50% inhibition at 10 µM.
The next series concerns the target T1, Thromboxane-A synthase (Homo sapiens, UniProt P24557).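 Further: enzyme inhibition assay with PGH2 supplied as substrate; in other assays of this panel Not Active means under 50% inhibition at 10 µM.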
T1 sequence (P24557 whole entry): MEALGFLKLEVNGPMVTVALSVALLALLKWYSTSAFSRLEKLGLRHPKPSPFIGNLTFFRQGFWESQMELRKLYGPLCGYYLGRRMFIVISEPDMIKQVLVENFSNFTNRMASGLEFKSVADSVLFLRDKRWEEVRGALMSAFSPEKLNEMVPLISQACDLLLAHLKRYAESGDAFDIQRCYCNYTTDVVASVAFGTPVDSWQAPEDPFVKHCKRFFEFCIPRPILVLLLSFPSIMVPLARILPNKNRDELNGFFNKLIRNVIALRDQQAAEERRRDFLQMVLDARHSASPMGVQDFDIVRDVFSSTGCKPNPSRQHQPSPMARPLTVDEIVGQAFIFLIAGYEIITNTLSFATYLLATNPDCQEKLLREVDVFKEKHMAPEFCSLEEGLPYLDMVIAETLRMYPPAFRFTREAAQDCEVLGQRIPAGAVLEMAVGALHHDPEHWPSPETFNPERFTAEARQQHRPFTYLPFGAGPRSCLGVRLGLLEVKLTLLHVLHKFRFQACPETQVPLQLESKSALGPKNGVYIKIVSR
As to the kind of experiment: biochemical. Format: tissue-based, Platelet.

The target in a further series is Vasopressin V1a receptor (Homo sapiens, UniProt P37288). The series is classed as cell membranes, Membrane. The note with it: hek293. Further: in other assays of this panel Not Active means under 50% inhibition at 10 µM.
Sequence of Vasopressin V1a receptor (P37288 whole entry): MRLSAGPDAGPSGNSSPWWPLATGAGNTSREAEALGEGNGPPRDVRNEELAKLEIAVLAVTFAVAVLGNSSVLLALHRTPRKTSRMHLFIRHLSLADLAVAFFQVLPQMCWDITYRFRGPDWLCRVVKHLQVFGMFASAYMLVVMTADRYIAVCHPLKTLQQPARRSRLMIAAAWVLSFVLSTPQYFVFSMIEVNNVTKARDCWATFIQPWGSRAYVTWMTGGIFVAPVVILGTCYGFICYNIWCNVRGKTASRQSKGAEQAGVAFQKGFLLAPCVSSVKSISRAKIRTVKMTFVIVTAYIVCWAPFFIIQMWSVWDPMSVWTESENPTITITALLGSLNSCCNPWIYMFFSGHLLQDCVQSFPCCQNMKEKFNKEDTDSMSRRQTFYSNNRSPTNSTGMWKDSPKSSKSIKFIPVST
The nature of series [4]: DRUGMATRIX: Glutamate, AMPA radioligand binding (ligand: [3H] AMPA). The note with it: Not Active = under 50% inhibition at 10 µM. Format: cell membranes, Rattus norvegicus, Wistar, Cerebral cortex, Membrane.
A further series concerns the target Melanocortin receptor 5 (Homo sapiens, UniProt P33032). The series is classed as cell membranes, Membrane. The following applies: hek293. Further: in other assays of this panel Not Active means under 50% inhibition at 10 µM.
Series [5] concerns the target Matrix metalloproteinase-9 (Homo sapiens, UniProt P14780). Briefly: biochemical. The series is classed as cell-based.
For the next series, the target named is Acetylcholinesterase (Homo sapiens, UniProt P22303). As to the kind of experiment: DRUGMATRIX: Acetylcholinesterase enzyme inhibition (substrate: acetylthiocholine). The series is classed as cell-based, HEK293. The following applies: Not Active = under 50% inhibition at 10 µM.
Sequence of Acetylcholinesterase (P22303 whole entry): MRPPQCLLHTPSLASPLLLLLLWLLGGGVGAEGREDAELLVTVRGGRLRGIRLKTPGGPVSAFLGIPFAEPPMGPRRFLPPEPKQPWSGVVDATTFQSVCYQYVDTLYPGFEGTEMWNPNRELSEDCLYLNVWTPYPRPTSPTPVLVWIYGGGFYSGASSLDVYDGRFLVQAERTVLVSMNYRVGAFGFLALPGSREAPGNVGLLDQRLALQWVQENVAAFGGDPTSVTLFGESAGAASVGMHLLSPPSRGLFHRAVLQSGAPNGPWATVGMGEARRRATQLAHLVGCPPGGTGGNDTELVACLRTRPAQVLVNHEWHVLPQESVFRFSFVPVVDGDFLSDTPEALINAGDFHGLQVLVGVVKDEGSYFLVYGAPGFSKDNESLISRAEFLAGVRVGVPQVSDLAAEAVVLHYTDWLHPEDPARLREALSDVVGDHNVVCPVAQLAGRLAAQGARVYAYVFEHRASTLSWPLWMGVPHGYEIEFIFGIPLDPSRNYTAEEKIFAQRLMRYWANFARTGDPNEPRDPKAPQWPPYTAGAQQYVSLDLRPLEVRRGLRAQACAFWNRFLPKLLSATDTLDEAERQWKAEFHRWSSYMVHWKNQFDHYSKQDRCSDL
For another series, the target named is T2, Cytochrome P450 2A6 (Homo sapiens, UniProt P11509). Further: in other assays of this panel Not Active means under 50% inhibition at 10 µM.
T2 sequence (P11509 whole entry): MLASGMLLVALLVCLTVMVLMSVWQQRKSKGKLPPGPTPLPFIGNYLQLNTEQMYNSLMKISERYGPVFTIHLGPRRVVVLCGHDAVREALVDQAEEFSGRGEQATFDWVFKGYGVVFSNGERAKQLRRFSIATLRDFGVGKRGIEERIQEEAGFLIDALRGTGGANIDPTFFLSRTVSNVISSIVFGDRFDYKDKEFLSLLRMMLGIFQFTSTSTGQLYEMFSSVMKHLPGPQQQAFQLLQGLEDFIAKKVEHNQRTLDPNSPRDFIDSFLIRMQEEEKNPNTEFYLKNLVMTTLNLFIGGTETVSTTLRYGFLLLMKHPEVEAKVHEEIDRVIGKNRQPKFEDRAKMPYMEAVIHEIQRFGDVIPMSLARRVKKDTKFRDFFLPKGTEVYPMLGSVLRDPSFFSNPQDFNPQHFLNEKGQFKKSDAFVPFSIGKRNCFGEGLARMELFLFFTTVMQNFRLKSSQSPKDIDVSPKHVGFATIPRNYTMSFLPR
The note with it: bti-tn-5b1-4.

Sequence of 5-hydroxytryptamine receptor 6 (P50406 whole entry): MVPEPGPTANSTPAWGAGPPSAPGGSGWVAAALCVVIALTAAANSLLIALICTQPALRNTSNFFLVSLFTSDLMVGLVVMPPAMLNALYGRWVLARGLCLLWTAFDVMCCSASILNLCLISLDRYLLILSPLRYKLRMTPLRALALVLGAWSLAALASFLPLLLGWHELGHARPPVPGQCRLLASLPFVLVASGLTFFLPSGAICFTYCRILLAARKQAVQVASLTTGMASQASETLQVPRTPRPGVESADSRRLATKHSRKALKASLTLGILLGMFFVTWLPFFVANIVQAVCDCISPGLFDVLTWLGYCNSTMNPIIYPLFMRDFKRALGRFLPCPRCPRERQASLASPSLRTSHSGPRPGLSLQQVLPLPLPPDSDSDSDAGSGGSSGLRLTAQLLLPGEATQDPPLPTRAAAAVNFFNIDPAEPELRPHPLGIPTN
Sequence of Matrix metalloproteinase-9 (P14780 whole entry): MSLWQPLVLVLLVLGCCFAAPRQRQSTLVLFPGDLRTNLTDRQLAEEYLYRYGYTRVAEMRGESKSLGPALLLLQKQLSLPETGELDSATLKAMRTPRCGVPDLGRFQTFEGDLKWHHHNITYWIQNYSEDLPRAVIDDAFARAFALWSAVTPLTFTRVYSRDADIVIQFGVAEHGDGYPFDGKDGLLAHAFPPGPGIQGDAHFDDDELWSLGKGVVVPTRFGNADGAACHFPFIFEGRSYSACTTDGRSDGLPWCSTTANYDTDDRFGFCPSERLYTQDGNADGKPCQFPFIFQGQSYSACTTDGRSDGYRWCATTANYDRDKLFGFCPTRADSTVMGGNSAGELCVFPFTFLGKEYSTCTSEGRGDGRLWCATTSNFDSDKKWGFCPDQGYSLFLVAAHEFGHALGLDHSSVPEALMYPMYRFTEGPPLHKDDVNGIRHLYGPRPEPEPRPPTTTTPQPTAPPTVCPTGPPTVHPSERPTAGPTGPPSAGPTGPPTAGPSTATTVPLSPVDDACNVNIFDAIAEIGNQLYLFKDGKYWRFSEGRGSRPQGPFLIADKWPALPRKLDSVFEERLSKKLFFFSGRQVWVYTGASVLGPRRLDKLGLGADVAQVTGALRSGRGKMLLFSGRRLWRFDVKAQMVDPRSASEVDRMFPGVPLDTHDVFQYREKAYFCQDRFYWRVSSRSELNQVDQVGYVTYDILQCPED
Sequence of Melanocortin receptor 5 (P33032 whole entry): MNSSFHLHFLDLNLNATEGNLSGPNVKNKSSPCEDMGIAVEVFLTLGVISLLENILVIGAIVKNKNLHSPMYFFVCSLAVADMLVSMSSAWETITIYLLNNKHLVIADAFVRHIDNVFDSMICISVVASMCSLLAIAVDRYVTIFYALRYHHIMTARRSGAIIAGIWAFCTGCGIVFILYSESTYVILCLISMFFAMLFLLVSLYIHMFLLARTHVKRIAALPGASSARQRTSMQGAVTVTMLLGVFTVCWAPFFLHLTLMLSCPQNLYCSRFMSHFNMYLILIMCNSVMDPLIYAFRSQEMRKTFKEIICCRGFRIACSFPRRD

In general, IC50 refers to the point on the concentration scale where inhibition reaches its midpoint. By Ki is commonly meant the equilibrium dissociation constant of an inhibitor or competing ligand from its target. As for `CC1=C(CC(=O)O)c2cc(F)ccc2/C1=C\c1ccc([S+](C)[O-])cc1` (stereo not given), the IC50 result (in series [1]; in series [2]; in [3] (hela); against Thromboxane-A synthase (platelet); against Vasopressin V1a receptor; in series [4]) was “Not Active” throughout. For the same compound, the IC50 entry (at Melanocortin receptor 5; in series [5]; against Acetylcholinesterase (hek293); on Cytochrome P450 2A6) was “Not Active” throughout. Further, the Ki entry (in [1]; in series [4]; at Cytochrome P450 2A6) was “Not Active” throughout.

For the compound `N[C@H](CSC(=S)NCc1ccccc1)C(=O)O`, the IC50 result (in series [1]; in [2]; in series [3] (hela); against Thromboxane-A synthase (platelet); on Vasopressin V1a receptor; in series [4]) was “Not Active” each time. For the same compound, the IC50 entry (at Melanocortin receptor 5; in series [5]; against Acetylcholinesterase (hek293); against Cytochrome P450 2A6) was “Not Active” each time. Further, the Ki entry (in series [1]; in series [4]; on Cytochrome P450 2A6) was “Not Active” in each case.

As for `CC(=O)N[C@@H]1[C@H](Oc2c3cc4cc2Oc2ccc(cc2Cl)[C@@H](O[C@@H]2O[C@@H](CO)[C@@H](O)[C@H](O)[C@@H]2NC(C)=O)[C@@H]2NC(=O)[C@H](NC(=O)[C@@H]4NC(=O)[C@H]4NC(=O)[C@@H](Cc5ccc(c(Cl)c5)O3)NC(=O)[C@H](N)c3ccc(O)c(c3)Oc3cc(O)cc4c3)c3ccc(O)c(c3)-c3c(O[C@H]4O[C@H](CO)[C@@H](O)[C@@H](O)[C@@H]4O)cc(O)cc3[C@@H](C(=O)O)NC2=O)O[C@@H](CO)[C@@H](O)[C@@H]1O`, the IC50 entry (in series [1]; in [2]; in series [3] (hela); against Thromboxane-A synthase (platelet); at Vasopressin V1a receptor; in series [4]) was “Not Active” in each case. Also, the IC50 result (against Melanocortin receptor 5; in series [5]; on Acetylcholinesterase (hek293); against Cytochrome P450 2A6) was “Not Active” throughout. In addition, the Ki entry (in series [1]; in [4]; at Cytochrome P450 2A6) was “Not Active” in each case.

For `Clc1ccc2c(c1)C(N1CCNCC1)=Nc1ccccc1O2` [AMOXAPINE], the IC50 result (in series [2]; at Thromboxane-A synthase (platelet); at Vasopressin V1a receptor; against Melanocortin receptor 5; in [5]; against Acetylcholinesterase (hek293)) was “Not Active” in each case. The IC50 result against Cytochrome P450 2A6 is reported as “Not Active”. Further, the Ki result at Cytochrome P450 2A6 is recorded as “Not Active”.

Turning to `COc1cc2c(c(OC)c1OC)-c1ccc(OC)c(=O)cc1[C@@H](NC(C)=O)CC2` [COLCHICINE], the 50% inhibitory concentration (IC50) entry (in series [2]; in series [3] (hela); against Thromboxane-A synthase (platelet); at Vasopressin V1a receptor; against Melanocortin receptor 5; in series [5]) was “Not Active” each time. For the same compound, the IC50 entry against Acetylcholinesterase (hek293) and against Cytochrome P450 2A6 was “Not Active” in each case. Besides, the Ki entry on Cytochrome P450 2A6 is reported as “Not Active”.

Turning to `CN1CCC(=C2c3ccccc3C=Cc3ccccc32)CC1` [CYPROHEPTADINE], the IC50 result was “Not Active” in series [2]; 0.281 µM in [3] (read-out: IC50); “Not Active” on Thromboxane-A synthase (platelet); “Not Active” on Vasopressin V1a receptor; “Not Active” against Melanocortin receptor 5; “Not Active” in series [5]. The IC50 result against Acetylcholinesterase (hek293) and against Cytochrome P450 2A6 was “Not Active” throughout. Further, the values for the Ki (in series [3]; at Cytochrome P450 2A6) were 0.13 µM and “Not Active”, respectively.

On to `CC/C(=C(/CC)c1ccc(O)cc1)c1ccc(O)cc1` [DIETHYLSTILBESTROL], for which the IC50 result in series [2] is “Not Active”; in series [3] (read-out: IC50), 12.9 µM; at Thromboxane-A synthase (read-out: IC50), 4.36 µM; on Melanocortin receptor 5 it was “Not Active”; in series [5], “Not Active”; on Acetylcholinesterase (read-out: IC50) it was 25.6 µM. For the same compound, the IC50 entry on Cytochrome P450 2A6 is on record as “Not Active”. Moreover, the Ki in series [3] is 5.99 µM; at Cytochrome P450 2A6 it was “Not Active”.

For the compound `CC(=O)N1CCN(c2ccc(OCC3COC(Cn4ccnc4)(c4ccc(Cl)cc4Cl)O3)cc2)CC1` (stereo not given) [KETOCONAZOLE], the IC50 result in series [1] is “Not Active”; in series [2], “Not Active”; in series [3] (hela), “Not Active”; on Thromboxane-A synthase (read-out: IC50), 2.17 µM; against Vasopressin V1a receptor it was “Not Active”; in series [4], “Not Active”. Besides, the IC50 result (on Melanocortin receptor 5; in [5]; at Acetylcholinesterase (hek293); on Cytochrome P450 2A6) was “Not Active” each time. For the same compound, the Ki result (in [1]; in series [4]; at Cytochrome P450 2A6) was “Not Active” each time.

For `C=CCN1CC[C@]23c4c5ccc(O)c4O[C@H]2C(=O)CC[C@@]3(O)[C@H]1C5` [NALOXONE], the IC50 result (in series [2]; in [3] (hela); against Thromboxane-A synthase (platelet); at Vasopressin V1a receptor; at Melanocortin receptor 5; in [5]) was “Not Active” throughout. Besides, the IC50 result against Acetylcholinesterase (hek293) is reported as “Not Active”.

As to `COCCOC(=O)C1=C(C)NC(C)=C(C(=O)OC(C)C)C1c1cccc([N+](=O)[O-])c1` (stereo not given) [NIMODIPINE], the IC50 result (in [1]; in series [2]; in [3] (hela); against Thromboxane-A synthase (platelet); at Vasopressin V1a receptor; in series [4]) was “Not Active” each time. In addition, the IC50 entry (against Melanocortin receptor 5; in series [5]; against Acetylcholinesterase (hek293)) was “Not Active” each time. Further, the Ki result in [1] and in series [4] was “Not Active” each time.

On to `CC(C)NCC(O)COc1cccc2ccccc12` (stereo not given) [PROPRANOLOL], for which the IC50 result in [2] is “Not Active”; in [3] (read-out: IC50), 3.06 µM; on Thromboxane-A synthase (platelet) it was “Not Active”; on Vasopressin V1a receptor, “Not Active”; at Melanocortin receptor 5, “Not Active”; in series [5], “Not Active”. For the same compound, the IC50 entry against Acetylcholinesterase (hek293) and at Cytochrome P450 2A6 was “Not Active” each time. Further, the Ki is 1.42 µM in series [3] and “Not Active” at Cytochrome P450 2A6.

`COCCCOc1ccnc(C[S+]([O-])c2nc3ccccc3[nH]2)c1C` (stereo not given) [RABEPRAZOLE]: the IC50 entry (in series [1]; in series [2]; in series [3] (hela); against Thromboxane-A synthase (platelet); against Vasopressin V1a receptor; in [4]) was “Not Active” in each case. The IC50 result (against Melanocortin receptor 5; in [5]; on Acetylcholinesterase (hek293); against Cytochrome P450 2A6) was “Not Active” throughout. In addition, the Ki entry (in series [1]; in series [4]; at Cytochrome P450 2A6) was “Not Active” in each case.

For the compound `CC(C)c1nc(CN(C)C(=O)N[C@H](C(=O)N[C@@H](Cc2ccccc2)C[C@H](O)[C@H](Cc2ccccc2)NC(=O)OCc2cncs2)C(C)C)cs1` [RITONAVIR], the IC50 result (in series [1]; in [2]; in series [3] (hela); in series [4]; against Melanocortin receptor 5; in series [5]) was “Not Active” in each case. Moreover, the IC50 result at Acetylcholinesterase (hek293) is on record as “Not Active”. For the same compound, the Ki result in series [1] and in series [4] was “Not Active” throughout.

As for `CC(C)(C)c1ccc(C(O)CCCN2CCC(C(O)(c3ccccc3)c3ccccc3)CC2)cc1` (stereo not given) [TERFENADINE], the half-maximal inhibitory concentration (IC50) entry (in [1]; in series [2]; on Thromboxane-A synthase (platelet); against Vasopressin V1a receptor; in series [4]; at Melanocortin receptor 5) was “Not Active” throughout. Moreover, the IC50 entry (in series [5]; on Acetylcholinesterase (hek293); on Cytochrome P450 2A6) was “Not Active” throughout. The Ki entry (in [1]; in series [4]; at Cytochrome P450 2A6) was “Not Active” throughout.
